What was measured:
[1] = target: T1, Fatty acid-binding protein, heart (Homo sapiens, UniProt P05413); assay: Binding affinity to human FABP3 expressed in Escherichia coli BL21 (DE3) at 60 uM by surface plasmon resonance analysis
[2] = target: T1, Fatty acid-binding protein, heart; assay: Binding affinity to human FABP3 expressed in Escherichia coli BL21 (DE3) in DMPC liposomes by surface plasmon resonance analysis
[3] = target: T1, Fatty acid-binding protein, heart; assay: Binding affinity to human FABP3 expressed in Escherichia coli BL21 (DE3) at 10 uM in DMPC liposomes by surface plasmon resonance analysis

T1 sequence (P05413 whole entry): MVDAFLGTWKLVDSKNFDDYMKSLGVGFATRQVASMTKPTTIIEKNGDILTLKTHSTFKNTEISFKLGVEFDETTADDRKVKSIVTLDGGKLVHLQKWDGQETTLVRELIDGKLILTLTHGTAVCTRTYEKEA

Row | Compound | Kd [1] | Kd [2] | Kd [3]
1 | CCCCCCCCCCCCCC(=O)OC[C@H](COP(=O)(O)OCC[N+](C)(C)C)OC(=O)CCCCCCCCCCCCC | 3.6 nM |  | 
2 | CC/C=C\C/C=C\C/C=C\CCCCCCCC(=O)O |  | 2.76 nM | 
3 | CCCCCCCCCCC/C=C\CCCCC(=O)O | 54200 nM |  | 401 nM

Source: ChEMBL document CHEMBL3120145, “Interaction kinetics of liposome-incorporated unsaturated fatty acids with fatty acid-binding protein 3 by surface plasmon resonance” (Bioorg Med Chem, 2014)
